Counter-ions that a name gives are not always drawn.
Each compound was assayed against T1, human mGluR5 (Homo sapiens, UniProt P41594) (assay: Experiment for receptor function of mGluR5 (Ca2+-dependent fluorescence, FLIPR, CHO-K1 cells stably expressing human mGluR5)). Details: L-glutamic acid 10 μM, Fluo-4 fluorescence.
T1 construct: expressed in transfected cells
Type: cell-based
Procedure: Stable expression cells in which the human mGluR5 gene had been introduced into a Chinese hamster ovary cell (CHO-K1) were used for evaluation. The cells were suspended in a growth medium (MEM-α (D8042, available from Sigma) containing 10% inactivated FBS (Cat. No. 171012, available from CCB) and 2 mM glutamax (Cat. No. 35050, available from GIBCO)) and seeded on a black clear-bottom 96-well plate at 100,000 cells per well. One day after seeding, the medium was replaced by a medium (Hanks' balanced salt solution (HBSS buffer solution) (20 mM HEPES, 2.5 mM probencide (165-15472, available from Wako Pure Chemical Industries, Ltd.), and 10×HBSS (14065-056, available from Gibco) diluted 10 times, pH 7.4)) containing a calcium-sensitive dye Fluo-4 AM at a final concentration of […] (F312, available from Dojindo Laboratories) and Pluronic F-127 at a final concentration of 0.0145% (P-2443, available from Sigma), followed by incubation at 37° C. for one hour, thereby loading Fluo-4 AM into the cells.
Subsequently, the cells were washed twice with an HBSS buffer solution, to which was subsequently added the same buffer solution. Twenty minutes thereafter, the plate was transferred into a fluorescence screening system (FLIPR TETRA, available from Molecular Devices, LLC) and measured for a Ca^2+-dependent fluorescence change in the cells.
First of all, a fluorescence baseline was measured, and thereafter, fluorescence measurement was performed for 2 minutes while adding a test substance, an excessive amount of 6-methyl-2-(phenylethynyl)pyridine (hereinafter referred to as “MPEP”) (final concentration: 10 μM), or the medium. Thereafter, fluorescence measurement was carried out for one minute while adding L-glutamic acid (final concentration: 10 μM).
While taking a fluorescence intensity caused by L-glutamic acid as 100% and a fluorescence intensity caused by L-glutamic acid in the presence of MPEP as 0%, respectively, function inhibitory activity against human mGluR5 was evaluated from the fluorescence intensity caused by L-glutamic acid in the presence of the test substance at each concentration, and an IC50 value was estimated according to a logistic equation (SAS System).

T1 sequence (P41594 21-1212): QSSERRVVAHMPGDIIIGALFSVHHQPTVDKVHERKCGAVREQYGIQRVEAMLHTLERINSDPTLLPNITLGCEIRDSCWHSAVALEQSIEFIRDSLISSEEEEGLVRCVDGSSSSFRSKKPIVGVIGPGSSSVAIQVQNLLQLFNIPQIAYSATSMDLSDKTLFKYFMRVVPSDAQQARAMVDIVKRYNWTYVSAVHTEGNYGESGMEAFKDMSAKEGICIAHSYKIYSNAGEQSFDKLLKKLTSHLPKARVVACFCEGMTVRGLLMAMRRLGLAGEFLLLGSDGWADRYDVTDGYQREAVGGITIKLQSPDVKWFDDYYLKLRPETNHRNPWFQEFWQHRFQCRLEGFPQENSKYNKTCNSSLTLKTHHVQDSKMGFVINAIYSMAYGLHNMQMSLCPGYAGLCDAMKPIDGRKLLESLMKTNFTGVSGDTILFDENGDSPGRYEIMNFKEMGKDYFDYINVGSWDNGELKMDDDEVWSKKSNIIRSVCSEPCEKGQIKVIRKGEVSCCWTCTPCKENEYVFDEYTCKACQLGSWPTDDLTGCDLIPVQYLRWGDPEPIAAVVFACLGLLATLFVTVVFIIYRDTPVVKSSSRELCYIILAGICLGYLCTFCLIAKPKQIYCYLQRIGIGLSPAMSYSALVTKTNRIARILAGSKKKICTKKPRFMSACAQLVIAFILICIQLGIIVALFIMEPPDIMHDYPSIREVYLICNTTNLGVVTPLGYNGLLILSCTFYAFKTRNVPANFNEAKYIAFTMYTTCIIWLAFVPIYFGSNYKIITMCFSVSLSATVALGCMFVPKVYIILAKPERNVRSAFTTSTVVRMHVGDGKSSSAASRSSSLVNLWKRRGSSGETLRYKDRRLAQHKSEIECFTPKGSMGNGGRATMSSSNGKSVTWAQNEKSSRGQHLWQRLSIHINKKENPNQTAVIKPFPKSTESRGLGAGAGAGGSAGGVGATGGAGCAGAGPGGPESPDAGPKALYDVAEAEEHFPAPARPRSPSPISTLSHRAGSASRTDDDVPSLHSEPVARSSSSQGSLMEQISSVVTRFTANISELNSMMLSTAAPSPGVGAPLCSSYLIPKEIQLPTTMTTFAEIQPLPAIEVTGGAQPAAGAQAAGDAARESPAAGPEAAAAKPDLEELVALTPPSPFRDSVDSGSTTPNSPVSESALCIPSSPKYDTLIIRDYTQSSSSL

| IC50 | Compound |
| --- | --- |
| 30 nM | Cc1ncc(-c2cc(OCc3ncccc3F)nc3c2CCC3)cn1 [Example 41, 2-[(3-Fluoropyridin-2-yl)methoxy]-4-(2-methylpyrimidin-5-yl)-6,7-dihydro-5H-cyclopenta[b]pyridine] |
| 348 nM | CC(C)(O)c1cncc(-c2cc(OCc3ccccn3)nc3c2CCC3)n1 [Example 55, 2-{6-[2-(Pyridin-2-ylmethoxy)-6,7-dihydro-5H-cyclopenta[b]pyridin-4-yl]pyrazin-2-yl}propan-2-ol] |
| 95 nM | OCc1cncc(-c2cc(OCc3ccc(F)cc3)nc3c2CCC3)c1 [Example 248, (5-{2-[(4-Fluorobenzyl)oxy]-6,7-dihydro-5H-cyclopenta[b]pyridin-4-yl}pyridin-3-yl)methanol] |
| 119 nM | N#Cc1ccc(COc2cc(-c3cncc(CO)n3)c3c(n2)CCCC3)nc1 [Example 288, 6-[({4-[6-(Hydroxymethyl)pyrazin-2-yl]-5,6,7,8-tetrahydroquinolin-2-yl}oxy)methyl]pyridine-3-carbonitrile] |
| 42 nM | Cc1csc(COc2cc(-c3cccnc3)c3c(n2)CCCC3)n1 [Example 95, 2-[(4-Methyl-1,3-thiazol-2-yl)methoxy]-4-(pyridin-3-yl)-5,6,7,8-tetrahydroquinoline] |
| 28 nM | N#Cc1ccc(COc2cc(-c3cncc(CO)c3)c3c(n2)CCCC3)nc1 [Example 276, 6-[({4-[5-(Hydroxymethyl)pyridin-3-yl]-5,6,7,8-tetrahydroquinolin-2-yl}oxy)methyl]pyridine-3-carbonitrile] |
| 43 nM | CCc1cncc(-c2cc(OCc3ccccn3)nc3c2CCCC3)n1 [Example 202, 4-(6-Ethylpyrazin-2-yl)-2-(pyridin-2-ylmethoxy)-5,6,7,8-tetrahydroquinoline] |
| 41.4 nM | COCc1cccc(COc2cc(-c3cccnc3)c3c(n2)CCCC3)n1 [Example 89, 2-{[6-(Methoxymethyl)pyridin-2-yl]methoxy}-4-(pyridin-3-yl)-5,6,7,8-tetrahydroquinoline] |
| 87 nM | N#Cc1ccc(COc2cc(-c3cncnc3)c3c(n2)CCCC3)cc1 [Example 278, 4-({[4-(Pyrimidin-5-yl)-5,6,7,8-tetrahydroquinolin-2-yl]oxy}methyl)benzonitrile] |
| 72.7 nM | OCc1cncc(-c2cc(OCc3ccccn3)nc3c2CCCC3)c1 [Example 122, {5-[2-(Pyridin-2-ylmethoxy)-5,6,7,8-tetrahydroquinolin-4-yl]pyridin-3-yl}methanol hydrochloride] |
| 58.8 nM | COCc1cncc(-c2cc(OCc3ccccn3)nc3c2CCCC3)c1 [Example 123, 4-[5-(Methoxymethyl)pyridin-3-yl]-2-(pyridin-2-ylmethoxy)-5,6,7,8-tetrahydroquinoline hydrochloride] |
| 495 nM | N#Cc1cccc(COc2cc(-c3cncc(CO)n3)c3c(n2)CCC3)n1 [Example 56, 6-[({4-[6-(Hydroxymethyl)pyrazin-2-yl]-6,7-dihydro-5H-cyclopenta[b]pyridin-2-yl}oxy)methyl]pyridine-2-carbonitrile] |
| 316 nM | Cc1cccnc1COc1cc(-c2cncnc2)c2c(n1)CCCC2 [Example 153, 2-[(3-Methylpyridin-2-yl)methoxy]-4-(pyrimidin-5-yl)-5,6,7,8-tetrahydroquinoline] |
| 20.4 nM | Fc1ncc(-c2cc(OCc3ccccn3)nc3c2CCCC3)cn1 [Example 167, 4-(2-Fluoropyrimidin-5-yl)-2-(pyridin-2-ylmethoxy)-5,6,7,8-tetrahydroquinoline hydrochloride] |
| 166 nM | N#Cc1ncc(-c2cc(OCc3ncc(F)cc3F)nc3c2CCC3)cn1 [Example 44, 5-{2-[(3,5-Difluoropyridin-2-yl)methoxy]-6,7-dihydro-5H-cyclopenta[b]pyridin-4-yl}pyrimidine-2-carbonitrile] |
| 94 nM | CS(=O)(=O)Oc1cc(F)cc(-c2cc(OCc3ccccn3)nc3c2CCC3)c1 [Example 69, 3-Fluoro-5-[2-(pyridin-2-ylmethoxy)-6,7-dihydro-5H-cyclopenta[b]pyridin-4-yl]phenyl methanesulfonate] |
| 27.3 nM | Nc1ncc(-c2cc(OCc3ccccn3)nc3c2CCC3)cn1 [Example 259, 5-[2-(Pyridin-2-ylmethoxy)-6,7-dihydro-5H-cyclopenta[b]pyridin-4-yl]pyrimidin-2-amine hydrochloride] |
| 10.6 nM | N#Cc1ccc(COc2cc(-c3cncc(F)c3)c3c(n2)CCC3)nc1 [Example 250, 6-({[4-(5-Fluoropyridin-3-yl)-6,7-dihydro-5H-cyclopenta[b]pyridin-2-yl]oxy}methyl)pyridine-3-carbonitrile] |

| IC50 | Compound |
| --- | --- |
| 40.1 nM | Cc1coc(COc2cc(-c3cccnc3)c3c(n2)CCCC3)n1 [Example 92, 2-[(4-Methyl-1,3-oxazol-2-yl)methoxy]-4-(pyridin-3-yl)-5,6,7,8-tetrahydroquinoline] |
| 70.8 nM | Clc1ncncc1-c1cc(OCc2ccccn2)nc2c1CCCC2 [Example 176, 4-(4-Chloropyrimidin-5-yl)-2-(pyridin-2-ylmethoxy)-5,6,7,8-tetrahydroquinoline hydrochloride] |
| 75 nM | c1cncc(-c2cc(OCc3nccs3)nc3c2CCCC3)c1 [Example 94, 4-(Pyridin-3-yl)-2-(1,3-thiazol-2-ylmethoxy)-5,6,7,8-tetrahydroquinoline hydrochloride] |
| 36.5 nM | Nc1cncc(-c2cc(OCc3ccccn3)nc3c2CCCC3)n1 [Example 206, 6-[2-(Pyridin-2-ylmethoxy)-5,6,7,8-tetrahydroquinolin-4-yl]pyrazin-2-amine hydrochloride] |
| 51.2 nM | COc1cncc(-c2cc(OCc3ccccn3)nc3c2CCCC3)c1 [Example 102, 4-(5-Methoxypyridin-3-yl)-2-(pyridin-2-ylmethoxy)-5,6,7,8-tetrahydroquinoline hydrochloride] |
| 93.7 nM | Clc1nccnc1-c1cc(OCc2ccccn2)nc2c1CCCC2 [Example 197, 4-(3-Chloropyrazin-2-yl)-2-(pyridin-2-ylmethoxy)-5,6,7,8-tetrahydroquinoline hydrochloride] |
| 176 nM | Fc1ccnc(COc2cc(-c3cncnc3)c3c(n2)CCCC3)c1 [Example 146, 2-[(4-Fluoropyridin-2-yl)methoxy]-4-(pyrimidin-5-yl)-5,6,7,8-tetrahydroquinoline] |
| 72 nM | N#Cc1ncc(-c2cc(OCc3cccc(F)n3)nc3c2CCC3)cn1 [Example 48, 5-{2-[(6-Fluoropyridin-2-yl)methoxy]-6,7-dihydro-5H-cyclopenta[b]pyridin-4-yl}pyrimidine-2-carbonitrile] |
| 59.9 nM | O=[N+]([O-])c1cccc(-c2cc(OCc3ccccn3)nc3c2CCC3)c1 [Example 63, 4-(3-Nitrophenyl)-2-(pyridin-2-ylmethoxy)-6,7-dihydro-5H-cyclopenta[b]pyridine] |
| 13.9 nM | Nc1ncc(-c2cc(OCc3ccccn3)nc3c2CCCC3)cn1 [Example 169, 5-[2-(Pyridin-2-ylmethoxy)-5,6,7,8-tetrahydroquinolin-4-yl]pyrimidin-2-amine] |
| 15 nM | c1csc(COc2cc(-c3cncnc3)c3c(n2)CCC3)c1 [Example 34, 4-(Pyrimidin-5-yl)-2-(thiophen-2-ylmethoxy)-6,7-dihydro-5H-cyclopenta[b]pyridine] |
| 144 nM | Fc1nccnc1-c1cc(OCc2ccccn2)nc2c1CCCC2 [Example 200, 4-(3-Fluoropyrazin-2-yl)-2-(pyridin-2-ylmethoxy)-5,6,7,8-tetrahydroquinoline hydrochloride] |
| 253 nM | CNc1cccc(COc2cc(-c3cncnc3)c3c(n2)CCCC3)n1 [Example 158, N-Methyl-6-({[4-(pyrimidin-5-yl)-5,6,7,8-tetrahydroquinolin-2-yl]oxy}methyl)pyridin-2-amine] |
| 122 nM | Cc1ncc(-c2cc(OCc3cccc(F)n3)nc3c2CCC3)cn1 [Example 39, 2-[(6-Fluoropyridin-2-yl)methoxy]-4-(2-methylpyrimidin-5-yl)-6,7-dihydro-5H-cyclopenta[b]pyridine] |
| 74 nM | Fc1ccc(COc2cc(-c3cncnc3)c3c(n2)CCCC3)nc1 [Example 145, 2-[(5-Fluoropyridin-2-yl)methoxy]-4-(pyrimidin-5-yl)-5,6,7,8-tetrahydroquinoline] |
| 45 nM | Cc1ncc(-c2cc(OCc3ccccc3)nc3c2CCC3)cn1 [Example 38, 2-(Benzyloxy)-4-(2-methylpyrimidin-5-yl)-6,7-dihydro-5H-cyclopenta[b]pyridine] |
| 55 nM | N#Cc1ncc(-c2cc(OCc3ccc(F)cn3)nc3c2CCC3)cn1 [Example 49, 5-{2-[(5-Fluoropyridin-2-yl)methoxy]-6,7-dihydro-5H-cyclopenta[b]pyridin-4-yl}pyrimidine-2-carbonitrile] |
| 16.2 nM | Fc1cc(-c2cc(OCc3ccccn3)nc3c2CCC3)ccn1 [Example 73, 4-(2-Fluoropyridin-4-yl)-2-(pyridin-2-ylmethoxy)-6,7-dihydro-5H-cyclopenta[b]pyridine] |

Reference: patent US20150225404A1, “PYRIDINE DERIVATIVE AND MEDICINE” (NIPPON SHINYAKU CO., LTD., priority 2012, published 2015)
